# Assay results as given in patent US20220106301A1, “ACETAMIDO-PHENYLBENZAMIDE DERIVATIVES AND METHODS OF USING THE SAME” (Athenex, Inc., priority 2020, published 2022).
# Target: CYP3A4 (Homo sapiens, UniProt P08684)
# Experiment: Determination of CYP3A4 inhibitory activity (human liver microsome, Luciferin-IPA)
# Conditions: CYP3A4 IC50 (nM), 37° C. 11 minutes
# Method: The standard final Compound concentrations were 37, 111, 333, 1000, and 3000 nM. 12.5 μL of the Compound dilutions were transferred to a white 96-well plate. […] 25 μL of the buffer was added to each well. The plates were incubated at 37° C. for 11 minutes. 50 μL of luciferin detection reagent (Promega V9002) was added and the plates were incubated at room temperature for 5 minutes. The plate was read with a luminometer.
# The dose-response curve and IC50 were obtained by fitting data to nonlinear regression model using GraphPad Prism software (v6.0).
# Chain of CYP3A4 (P08684 whole entry): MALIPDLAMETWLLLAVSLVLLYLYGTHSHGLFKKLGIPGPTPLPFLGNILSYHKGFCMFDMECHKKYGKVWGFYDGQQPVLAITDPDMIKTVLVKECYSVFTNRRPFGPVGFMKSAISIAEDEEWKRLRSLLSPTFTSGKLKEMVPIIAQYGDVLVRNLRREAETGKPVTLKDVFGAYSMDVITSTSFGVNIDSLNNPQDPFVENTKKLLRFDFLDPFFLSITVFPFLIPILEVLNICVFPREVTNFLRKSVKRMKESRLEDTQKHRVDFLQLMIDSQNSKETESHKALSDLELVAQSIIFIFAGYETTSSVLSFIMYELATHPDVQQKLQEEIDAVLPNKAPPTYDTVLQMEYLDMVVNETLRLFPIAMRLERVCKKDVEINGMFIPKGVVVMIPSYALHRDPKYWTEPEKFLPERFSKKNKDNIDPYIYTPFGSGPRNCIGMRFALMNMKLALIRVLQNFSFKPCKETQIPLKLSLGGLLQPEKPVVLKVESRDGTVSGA
row,Structure (SMILES),IC50 [nM]
1,COc1cc(NC(=O)c2cc(=O)c3ccccc3o2)c(C(=O)Nc2ccc(CCN(C)Cc3cccc(-c4cccnc4)c3)cc2)cc1OC [Compound 7],500 to 1000
2,COc1cc(NC(=O)c2cc(=O)c3ccccc3o2)c(C(=O)Nc2ccc(CCN(Cc3cccc(-n4ccnc4)c3)C(C)C)cc2)cc1OC [Compound 10],250 to 500
3,COc1cc(NC(=O)c2cc(=O)c3ccccc3o2)c(C(=O)Nc2ccc(CCN(C)Cc3cccc(-n4cnc(C)c4)c3)cc2)cc1OC [Compound 11],500 to 1000
4,COc1cc(NC(=O)c2cc(=O)c3ccccc3o2)c(C(=O)Nc2ccc(CCN(C)Cc3ccc4c(c3)CNN4C)cc2)cc1OC [Compound 12],> 1000
5,COc1cc(NC(=O)c2cc(=O)c3ccccc3o2)c(C(=O)Nc2ccc(CCN(C)Cc3cccc(-c4c[nH]cn4)c3)cc2)cc1OC [Compound 13],> 1000
6,COc1cc(NC(=O)c2cc(=O)c3ccccc3o2)c(C(=O)Nc2ccc(CCN(C)Cc3cccc(-c4cncs4)c3)cc2)cc1OC [Compound 15],500 to 1000
7,COc1cc(NC(=O)c2cc(=O)c3ccccc3o2)c(C(=O)Nc2ccc(CCN(Cc3cccc(-n4ccnc4)c3)Cc3ccc4c(cnn4C)c3)cc2)cc1OC [Compound 16],250 to 500
8,COc1cc(NC(=O)c2cc(=O)c3ccccc3o2)c(C(=O)Nc2ccc(CCN(C)Cc3ccc(-n4cncn4)cc3)cc2)cc1OC [Compound 19],250 to 500
9,COc1cc(NC(=O)c2cc(=O)c3ccccc3o2)c(C(=O)Nc2ccc(CCN(Cc3cccc(-n4cnc(C)c4)c3)Cc3ccc4c(cnn4C)c3)cc2)cc1OC [Compound 23],250 to 500
10,CCN(CCc1ccc(NC(=O)c2cc(OC)c(OC)cc2NC(=O)c2cc(=O)c3ccccc3o2)cc1)Cc1cccn1Cc1cccnc1 [Compound 25],250 to 500
11,COc1cc(NC(=O)c2cc(=O)c3ccccc3o2)c(C(=O)Nc2ccc(CCN(Cc3ccc(-n4ccnc4)cc3)Cc3ccc4c(cnn4C)c3)cc2)cc1OC [Compound 26],250 to 500
12,COc1cc(NC(=O)c2cnc3ccccc3n2)c(C(=O)Nc2ccc(CCN(Cc3cccc(-n4ccnc4)c3)Cc3ccc4c(cnn4C)c3)cc2)cc1OC [Compound 30],500 to 1000
13,COc1cc(NC(=O)c2cc(=O)c3ccccc3o2)c(C(=O)Nc2ccc(CCN(CC3=CNCN3C)Cc3ccc4cnn(C)c4c3)cc2)cc1OC [Compound 35],> 1000
14,COc1cc(NC(=O)c2cc(=O)c3cc(C)cc(C)c3o2)c(C(=O)Nc2ccc(CCN(Cc3cccnc3)Cc3ccc4c(cnn4C)c3)cc2)cc1OC [Compound 39],250 to 500
15,COc1cc(NC(=O)c2cc(=O)c3ccccc3o2)c(C(=O)Nc2ccc(CCN(Cc3cccnc3)Cc3ccc4cnn(C)c4c3)cc2)cc1OC [Compound 42],250 to 500
16,COc1cc(NC(=O)c2cc(=O)c3ccccc3o2)c(C(=O)Nc2ccc(CCN(Cc3cccnc3)Cc3ccc4c(c3)n(C)c(=O)n4C)cc2)cc1OC [Compound 44],100 to 250
17,COc1cc(NC(=O)c2cc(=O)c3ccccc3o2)c(C(=O)Nc2ccc(CCN(Cc3cccnc3)Cc3ccc4c(c3)CCO4)cc2)cc1OC [Compound 45],250 to 500
18,COc1cc(NC(=O)c2cc(=O)c3ccccc3o2)c(C(=O)Nc2ccc(CCN(Cc3cncc(F)c3)Cc3ccc4c(cnn4C)c3)cc2)cc1OC [Compound 46],250 to 500
19,COc1cc(NC(=O)c2cc(=O)c3ccccc3o2)c(C(=O)Nc2ccc(CCN(Cc3ccc4c(cnn4C)c3)Cc3ccncc3F)cc2)cc1OC [Compound 47],250 to 500

row,Structure (SMILES),IC50 [nM]
1,COc1cncc(CN(CCc2ccc(NC(=O)c3cc(OC)c(OC)cc3NC(=O)c3cc(=O)c4ccccc4o3)cc2)Cc2ccc3c(cnn3C)c2)c1 [Compound 48],100 to 250
2,COc1cnccc1CN(CCc1ccc(NC(=O)c2cc(OC)c(OC)cc2NC(=O)c2cc(=O)c3ccccc3o2)cc1)Cc1ccc2c(cnn2C)c1 [Compound 49],250 to 500
3,COc1cc(NC(=O)c2cc(=O)c3ccccc3o2)c(C(=O)Nc2ccc(CCN(Cc3cccc(-n4ccnc4)c3)Cc3ccc4c(c3)nnn4C)cc2)cc1OC [Compound 50],100 to 250
4,COc1cncc(CN(CCc2ccc(NC(=O)c3cc(OC)c(OC)cc3NC(=O)c3cnc4ccccc4c3)cc2)Cc2ccc3c(cnn3C)c2)c1 [Compound 51],250 to 500
5,COc1cncc(CN(CCc2ccc(NC(=O)c3cc(OC)c(OC)cc3NC(=O)c3cc(=O)c4cc(C)ccc4o3)cc2)Cc2ccc3c(cnn3C)c2)c1 [Compound 52],250 to 500
6,COc1cncc(CN(CCc2ccc(NC(=O)c3cc(OC)c(OC)cc3NC(=O)c3ccc4ccccc4n3)cc2)Cc2ccc3c(cnn3C)c2)c1 [Compound 53],100 to 250
7,COc1cc(NC(=O)c2cc(=O)c3ccccc3o2)c(C(=O)Nc2ccc(CCN(Cc3cccnc3)Cc3cnc4cnc(Br)cn34)cc2)cc1OC [Compound 54],100 to 250
8,CCOc1cncc(CN(CCc2ccc(NC(=O)c3cc(OC)c(OC)cc3NC(=O)c3cc(=O)c4ccccc4o3)cc2)Cc2ccc3c(cnn3C)c2)c1 [Compound 55],100 to 250
9,COCCOc1cncc(CN(CCc2ccc(NC(=O)c3cc(OC)c(OC)cc3NC(=O)c3cc(=O)c4ccccc4o3)cc2)Cc2ccc3c(cnn3C)c2)c1 [Compound 56],250 to 500
10,COc1cc(NC(=O)c2cc(=O)c3ccccc3o2)c(C(=O)Nc2ccc(CCN(Cc3cncc(C)c3)Cc3ccc4c(cnn4C)c3)cc2)cc1OC [Compound 57],250 to 500
11,COc1cc(NC(=O)c2cc(=O)c3ccccc3o2)c(C(=O)Nc2ccc(CCN(Cc3cncc(-n4ccnc4C)c3)Cc3ccc4c(cnn4C)c3)cc2)cc1OC [Compound 58],500 to 1000
12,COc1cc(NC(=O)c2cc(=O)c3cc(C)ccc3o2)c(C(=O)Nc2ccc(CCN(Cc3cncc(O)c3)Cc3ccc4c(cnn4C)c3)cc2)cc1OC [Compound 59],100 to 250
13,COCCOc1cncc(CN(CCc2ccc(NC(=O)c3cc(OC)c(OC)cc3NC(=O)c3cc(=O)c4cc(C)ccc4o3)cc2)Cc2ccc3c(cnn3C)c2)c1 [Compound 60],250 to 500
14,COCCOc1cncc(CN(CCc2ccc(NC(=O)c3cc(OC)c(OC)cc3NC(=O)c3cnc4ccccc4c3)cc2)Cc2ccc3c(cnn3C)c2)c1 [Compound 61],250 to 500
15,COCCOc1cncc(CN(CCc2ccc(NC(=O)c3cc(OC)c(OC)cc3NC(=O)c3cnc4ccccc4n3)cc2)Cc2ccc3c(cnn3C)c2)c1 [Compound 62],500 to 1000
16,COc1cncc(CN(CCc2ccc(NC(=O)c3cc(OC)c(OC)cc3NC(=O)c3cc(=O)c4ccccc4o3)cc2)Cc2ccc3c(c2)c(C)nn3C)c1 [Compound 63],500 to 1000
17,COc1cc(NC(=O)c2cc(=O)c3ccccc3o2)c(C(=O)Nc2ccc(CCN(Cc3cncc(C)c3)Cc3ccc4c(c3)c(C)nn4C)cc2)cc1OC [Compound 64],100 to 250
18,COCCOc1cncc(CN(CCc2ccc(NC(=O)c3cc(OC)c(OC)cc3NC(=O)c3cc(=O)c4ccccc4o3)cc2)Cc2ccc3c(c2)c(C)nn3C)c1 [Compound 65],100 to 250

# Continued, values first:
row,IC50 [nM],Structure (SMILES)
1,100 to 250,COc1cc(NC(=O)c2cc(=O)c3ccccc3o2)c(C(=O)Nc2ccc(CCN(C)Cc3ccc(-n4ccnc4)cc3)cc2)cc1OC [Compound 1]
2,100 to 250,COc1cc(NC(=O)c2cnc3ccccc3c2)c(C(=O)Nc2ccc(CCN(C)Cc3ccc(-n4ccnc4)cc3)cc2)cc1OC [Compound 2]
3,100 to 250,COc1cc(NC(=O)c2cc(=O)c3ccccc3o2)c(C(=O)Nc2ccc(CCN(C)Cc3cccc(-n4ccnc4)c3)cc2)cc1OC [Compound 3]
4,100 to 250,COc1cc(NC(=O)c2cc(=O)c3ccccc3o2)c(C(=O)Nc2ccc(CCN(Cc3cccc(-n4ccnc4)c3)CC3CC3)cc2)cc1OC [Compound 9]
5,< 100,COc1cc(NC(=O)c2cc(=O)c3ccccc3o2)c(C(=O)Nc2ccc(CCN(C)Cc3cccc(OC[C@@H]4CO[C@@](Cn5ccnc5)(c5ccc(Cl)cc5Cl)O4)c3)cc2)cc1OC [Compound 17]
6,< 100,COc1cc(NC(=O)c2cc(=O)c3ccccc3o2)c(C(=O)Nc2ccc(CCN(Cc3cncn3C)Cc3cncn3C)cc2)cc1OC [Compound 18]
7,100 to 250,CCN(CCc1ccc(NC(=O)c2cc(OC)c(OC)cc2NC(=O)c2cc(=O)c3ccccc3o2)cc1)Cc1ccc(-n2cncn2)cc1 [Compound 20]
8,< 100,COc1cc(NC(=O)c2cc(=O)c3ccccc3o2)c(C(=O)Nc2ccc(CCN(Cc3ccc4c(cnn4C)c3)Cc3cncn3C)cc2)cc1OC [Compound 21]
9,100 to 250,CCN(CCc1ccc(NC(=O)c2cc(OC)c(OC)cc2NC(=O)c2cc(=O)c3ccccc3o2)cc1)Cc1ccc(OC)c(Cn2cncn2)c1 [Compound 24]
10,100 to 250,COc1ccc(CN(CCc2ccc(NC(=O)c3cc(OC)c(OC)cc3NC(=O)c3cc(=O)c4ccccc4o3)cc2)Cc2cccc(-n3ccnc3)c2)cc1OC [Compound 27]
11,100 to 250,COc1ccc(CN(CCc2ccc(NC(=O)c3cc(OC)c(OC)cc3NC(=O)c3cc(=O)c4ccccc4o3)cc2)Cc2ccc(-n3ccnc3)cc2)cc1OC [Compound 28]
12,100 to 250,COc1ccc(CN(CCc2ccc(NC(=O)c3cc(OC)c(OC)cc3NC(=O)c3cc(=O)c4ccccc4o3)cc2)Cc2cccnc2)cc1OC [Compound 29]
13,< 100,COc1cc(NC(=O)c2cc(=O)c3ccccc3o2)c(C(=O)Nc2ccc(CCN(Cc3cccnc3)Cc3ccc4cnn(C)c4c3)cc2)cc1OC [Compound 32]
14,< 100,COc1cc(NC(=O)c2cc(=O)c3ccccc3o2)c(C(=O)Nc2ccc(CCN(Cc3ccncc3)Cc3ccc4c(cnn4C)c3)cc2)cc1OC [Compound 33]
15,100 to 250,CCn1cncc1CN(CCc1ccc(NC(=O)c2cc(OC)c(OC)cc2NC(=O)c2cnc3ccccc3n2)cc1)Cc1ccc2c(cnn2C)c1 [Compound 34]
16,100 to 250,COc1cc(NC(=O)c2cc(=O)c3ccccc3o2)c(C(=O)Nc2ccc(CCN(Cc3ccc4cnn(C)c4c3)Cc3ncc[nH]3)cc2)cc1OC [Compound 36]
17,100 to 250,CCN1CNC=C1CN(CCc1ccc(NC(=O)c2cc(OC)c(OC)cc2NC(=O)c2cc(=O)c3ccccc3o2)cc1)Cc1ccc2cnn(C)c2c1 [Compound 37]
18,100 to 250,COc1cc(NC(=O)c2cc(=O)c3cc(C)ccc3o2)c(C(=O)Nc2ccc(CCN(Cc3cccnc3)Cc3ccc4c(cnn4C)c3)cc2)cc1OC [Compound 38]
